Assay results published in patent US8148391B2 (Cephalon, Inc., priority 2006, dated 2012).
Counter-ions that a name gives are not always drawn. Like-named read-outs stand apart in the source and are kept apart here. Values belong to the compound of their own block, whether it stands above or below them.

Key:
[1] = target: T1, baculovirus-expressed ALK (Homo sapiens, UniProt Q9UM73); test: ALK Kinase Assay (ELISA-type, time-resolved fluorescence); assay type: biochemical
T1 construct: host or cells: baculovirus expression system
T1 sequence (Q9UM73 19-1620): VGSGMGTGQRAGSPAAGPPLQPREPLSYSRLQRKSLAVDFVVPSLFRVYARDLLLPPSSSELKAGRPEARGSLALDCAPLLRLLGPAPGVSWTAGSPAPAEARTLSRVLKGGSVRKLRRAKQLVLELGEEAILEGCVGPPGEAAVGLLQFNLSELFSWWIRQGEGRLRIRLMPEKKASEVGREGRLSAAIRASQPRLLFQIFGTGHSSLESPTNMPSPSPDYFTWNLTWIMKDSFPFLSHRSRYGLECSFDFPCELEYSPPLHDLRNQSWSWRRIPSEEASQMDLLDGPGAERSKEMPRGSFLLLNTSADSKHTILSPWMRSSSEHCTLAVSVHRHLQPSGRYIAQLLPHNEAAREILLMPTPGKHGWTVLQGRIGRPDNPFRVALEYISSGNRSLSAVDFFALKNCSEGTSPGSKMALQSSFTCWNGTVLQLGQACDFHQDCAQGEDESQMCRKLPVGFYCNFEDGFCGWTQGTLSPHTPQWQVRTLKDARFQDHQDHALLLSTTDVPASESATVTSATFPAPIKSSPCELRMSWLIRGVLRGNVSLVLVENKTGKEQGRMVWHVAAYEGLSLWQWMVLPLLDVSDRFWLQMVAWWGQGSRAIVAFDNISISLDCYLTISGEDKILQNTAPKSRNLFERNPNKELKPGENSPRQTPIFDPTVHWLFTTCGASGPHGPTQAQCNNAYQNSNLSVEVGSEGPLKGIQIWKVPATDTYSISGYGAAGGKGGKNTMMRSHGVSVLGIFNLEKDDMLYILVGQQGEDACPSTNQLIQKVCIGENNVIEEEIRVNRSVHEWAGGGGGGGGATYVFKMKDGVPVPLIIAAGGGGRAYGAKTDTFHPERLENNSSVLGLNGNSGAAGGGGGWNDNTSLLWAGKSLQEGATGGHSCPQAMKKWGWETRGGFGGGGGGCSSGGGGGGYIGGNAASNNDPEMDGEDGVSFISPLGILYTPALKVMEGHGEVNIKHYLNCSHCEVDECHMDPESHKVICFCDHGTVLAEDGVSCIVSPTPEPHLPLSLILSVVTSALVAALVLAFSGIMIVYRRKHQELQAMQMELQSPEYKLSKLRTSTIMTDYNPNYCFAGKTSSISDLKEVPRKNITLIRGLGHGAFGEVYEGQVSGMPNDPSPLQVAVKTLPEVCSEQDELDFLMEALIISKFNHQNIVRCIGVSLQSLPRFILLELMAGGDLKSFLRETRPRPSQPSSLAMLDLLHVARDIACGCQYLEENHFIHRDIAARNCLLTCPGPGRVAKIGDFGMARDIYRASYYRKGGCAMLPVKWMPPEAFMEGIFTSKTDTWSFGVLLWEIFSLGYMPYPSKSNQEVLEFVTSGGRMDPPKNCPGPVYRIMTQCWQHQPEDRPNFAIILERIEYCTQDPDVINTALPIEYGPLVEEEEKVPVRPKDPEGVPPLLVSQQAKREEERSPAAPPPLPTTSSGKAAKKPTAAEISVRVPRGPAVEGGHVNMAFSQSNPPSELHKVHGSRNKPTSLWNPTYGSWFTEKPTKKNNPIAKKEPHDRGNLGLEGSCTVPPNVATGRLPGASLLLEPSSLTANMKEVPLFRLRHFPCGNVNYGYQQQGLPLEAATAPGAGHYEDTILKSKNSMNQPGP
Method in brief: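 Plates coated with phospholipase C-γ substrate (10 μg/mL in TBS); reaction started with 30 ng/ml ALK and run 15 min at 37° C. Phosphorylated substrate detected with Eu-N1-labeled PT66 antibody. IC50 from sigmoidal variable-slope fit of percent inhibition vs log concentration.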

[2] = target: T2, c-Met (cytoplasmic domain) (Homo sapiens, UniProt P08581); test: c-Met Kinase Assay (same methods as for ALK, with modifications); assay type: biochemical
T2 construct: 10 ng/mL c-Met (cytoplasmic domain, Invitrogen Corporation #PV3143); purchased Invitrogen Corporation PV3143
T2 sequence (P08581 956-1390 limits assumed): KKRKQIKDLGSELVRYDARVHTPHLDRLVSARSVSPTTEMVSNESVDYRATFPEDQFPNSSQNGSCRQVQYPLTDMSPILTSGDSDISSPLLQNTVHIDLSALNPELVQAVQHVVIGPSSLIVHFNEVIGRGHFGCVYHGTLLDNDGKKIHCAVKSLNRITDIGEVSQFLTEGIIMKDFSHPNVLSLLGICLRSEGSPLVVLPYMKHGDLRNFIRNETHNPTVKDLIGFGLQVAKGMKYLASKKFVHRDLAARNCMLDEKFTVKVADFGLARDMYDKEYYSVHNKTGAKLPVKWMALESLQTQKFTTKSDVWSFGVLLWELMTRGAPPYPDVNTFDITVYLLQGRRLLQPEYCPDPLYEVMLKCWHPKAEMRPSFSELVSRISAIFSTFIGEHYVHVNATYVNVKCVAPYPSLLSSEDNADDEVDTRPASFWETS
Method in brief: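 Europium-labeled PT66 antibody (Eu-N1) detects substrate phosphorylation on wells coated with phospholipase C-γ at 10 μg/mL. The kinase, the cytoplasmic domain of c-Met at 10 ng/mL, starts the reaction, which proceeds 15 minutes at 37° C.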

[3] = 1 μM ATP (Km level), read-out: ALK Activity (ALK Kinase Inhibition, IC50)
[4] = 1 μM ATP (Km level), read-out: cMet Activity (c-Met Kinase Inhibition, IC50)
[5] = 1 μM ATP (Km level), 30 ng/ml ALK, 37° C., 15 minutes, read-out: ALK Activity (ALK kinase inhibition, IC50 class)
[6] = 1 μM ATP (Km level), 10 ng/mL c-Met, read-out: cMet Activity (c-Met kinase inhibition, IC50 class)
[7] = ALK kinase inhibition, 1 μM ATP, read-out: ALK Activity
[8] = c-Met kinase inhibition, 1 μM ATP, read-out: cMet Activity
[9] = ALK kinase inhibition, 1 μM ATP (Km level), read-out: ALK Activity
[10] = c-Met kinase inhibition, 1 μM ATP (Km level), read-out: cMet Activity

IC50 [1, 5]: 100 to 1000 nM
IC50 [2, 6]: 1000 to 10000 nM
SMILES: CCCCNC(=O)c1ccccc1Nc1nc(Nc2ccc3c(c2)CCCC(=O)N3)ncc1Cl [Example 1029, N-Butyl-2-[5-chloro-2-(2-oxo-2,3,4,5-tetrahydro-1H-benzo[b]azepin-7-ylamino)-pyrimidin-4-ylamino]-benzamide]

IC50 [1, 3]: < 100 nM
IC50 [2, 4]: 1000 to 10000 nM
SMILES: CC1(C)CCC(=O)Nc2ccc(Nc3ncc(Cl)c(Nc4ccccc4-c4cnccn4)n3)cc21 [Example 975]

IC50 [1, 3]: < 100 nM
IC50 [2, 4]: > 10000 nM
SMILES: CCCNC(=O)c1ccc(Nc2nc(Nc3ccc4c(c3)CCC(N3CCOCC3)CC4)ncc2Cl)c(OC)c1 (stereo not drawn) [Example 929, 4-[5-Chloro-2-(7-morpholin-4-yl-6,7,8,9-tetrahydro-5H-benzocyclohepten-2-ylamino)-pyrimidin-4-ylamino]-3-methoxy-N-propyl-benzamide]

IC50 [1, 7]: 1000 to 10000 nM
IC50 [2, 8]: < 100 nM
SMILES: CNC(=O)c1sc(C)c(C)c1Nc1nc(Nc2ccc3c(c2)CCOC(=O)N3C)ncc1Cl [Example 1772, 5-Methyl-3-[5-chloro-2-(5-methyl-6-oxo-5,6,8,9-tetrahydro-7-oxa-5-aza-benzocyclohepten-2-ylamino)-pyrimidin-4-ylamino]-4-methyl-thiophene-2-carboxylic acid methylamide]

IC50 [1, 5]: 100 to 1000 nM
IC50 [2, 6]: 1000 to 10000 nM
SMILES: COCCN1CCc2ccc(Nc3ncc(Cl)c(N[C@@H]4CCC[C@H](N(CC#N)S(C)(=O)=O)C4)n3)cc2CC1 (relative stereo) [Example 1386, rel-N-((1S,3R)-3-{5-Chloro-2-[3-(2-methoxy-ethyl)-2,3,4,5-tetrahydro-1H-benzo[d]azepin-7-ylamino]-pyrimidin-4-ylamino}-cyclohexyl)-N-cyanomethyl-methanesulfonamide]

IC50 [1, 7]: < 100 nM
IC50 [2, 8]: 1000 to 10000 nM
SMILES: COc1cc(N2CCOCC2)ccc1Nc1nc(Nc2ccc3c(c2)C(C)(C)CCC(=O)N3C)ncc1Cl [Example 1573, 7-[5-Chloro-4-(2-methoxy-4-morpholin-4-yl-phenylamino)-pyrimidin-2-ylamino]-1,5,5-trimethyl-1,3,4,5-tetrahydro-benzo[b]azepin-2-one]

IC50 [1, 7]: < 100 nM
IC50 [2, 8]: > 10000 nM
SMILES: COc1cc2c(cc1Nc1ncc(Cl)c(N[C@H]3[C@@H](C(N)=O)[C@@H]4C=C[C@H]3C4)n1)CCN(CCO)CC2 [Example 1532, (1S,2S,3R,4R)-3-{5-Chloro-2-[3-(2-hydroxy-ethyl)-8-methoxy-2,3,4,5-tetrahydro-1H-3-benzazepin-7-ylamino]-pyrimidin-4-ylamino}-bicyclo[2.2.1]hept-5-ene-2-carboxylic acid amide]

IC50 [1, 7]: 1000 to 10000 nM
IC50 [2, 8]: 100 to 1000 nM
SMILES: CNC(=O)c1cccc(Cl)c1Nc1nc(Nc2ccc3c(c2)CC(=O)N(C)CC3)ncc1Cl [Example 1817, 3-Chloro-2-[5-chloro-2-(3-methyl-4-oxo-2,3,4,5-tetrahydro-1H-benzo[d]azepin-7-ylamino)-pyrimidin-4-ylamino]-N-methylbenzamide]

IC50 [1, 7]: 100 to 1000 nM
IC50 [2, 8]: 100 to 1000 nM
SMILES: CCN1CCCOc2ccc(Nc3ncc(Cl)c(Nc4ccsc4C(=O)NC)n3)cc21 [Example 1698, 3-[5-Chloro-2-(9-ethyl-6,7,8,9-tetrahydro-5-oxa-9-aza-benzocyclohepten-2-ylamino)-pyrimidin-4-ylamino]-thiophene-2-carboxylic acid methyl amide]

IC50 [1, 5]: < 100 nM
IC50 [2, 6]: > 10000 nM
SMILES: COc1cc2c(cc1Nc1ncc(Cl)c(N[C@H]3[C@@H](C(N)=O)[C@@H]4C=C[C@H]3C4)n1)CCC(NCC(F)F)CC2 (single isomer, unassigned) [Example 1053]

IC50 [1, 3]: < 100 nM
IC50 [2, 4]: < 100 nM
SMILES: CN1C(=O)CCCc2cc(Nc3ncc(Cl)c(Nc4ccccc4C(=O)NCCC#N)n3)ccc21 [Example 871, 2-[5-Chloro-2-(1-methyl-2-oxo-2,3,4,5-tetrahydro-1H-benzo[b]azepin-7-ylamino)-pyrimidin-4-ylamino]-N-(2-cyano-ethyl)-benzamide]

IC50 [1, 7]: < 100 nM
IC50 [2, 8]: 1000 to 10000 nM
SMILES: COc1cc2c(cc1Nc1ncc(Cl)c(Nc3ccccc3S(=O)(=O)N(C)C)n1)CCN(CC(C)(C)O)CC2 [Example 1563, 2-{5-Chloro-2-[3-(2-hydroxy-2-methyl-propyl)-8-methoxy-2,3,4,5-tetrahydro-1H-3-benzazepin-7-ylamino]-pyrimidin-4-ylamino}-N,N-dimethyl-benzenesulfonamide]

Further lines, the compound ahead of its results:

SMILES: CC1(C)CCC(=O)Nc2ccc(Nc3ncc(Cl)c(Nc4ccc(N5CCOCC5)cc4-n4cccn4)n3)cc21 [Example 627, 7-[5-Chloro-4-(4-morpholin-4-yl-2-pyrazol-1-yl-phenylamino)-pyrimidin-2-ylamino]-5,5-dimethyl-1,3,4,5-tetrahydro-benzo[b]azepin-2-one]
IC50 [1, 3]: < 100 nM
IC50 [2, 4]: 1000 to 10000 nM

SMILES: COc1cc2c(cc1Nc1ncc(Cl)c(Nc3ccc(N4CCOCC4)cc3C)n1)CCN(CC(=O)N(C)C)CC2 [Example 801, 2-{7-[5-Chloro-4-(2-methyl-4-morpholin-4-yl-phenylamino)-pyrimidin-2-ylamino]-8-methoxy-1,2,4,5-tetrahydro-benzo[d]azepin-3-yl}-N,N-dimethyl-acetamide]
IC50 [1, 3]: < 100 nM
IC50 [2, 4]: > 10000 nM

SMILES: CNC(=O)c1ccccc1Nc1nc(Nc2ccc3c(c2)CCC(NCC(F)F)CC3)ncc1Cl (stereo not drawn) [Example 660, 2-{5-Chloro-2-[7-(2,2-difluoro-ethylamino)-6,7,8,9-tetrahydro-5H-benzocyclohepten-2-ylamino]-pyrimidin-4-ylamino}-N-methyl-benzamide]
IC50 [1, 3]: < 100 nM
IC50 [2, 4]: < 100 nM

SMILES: COc1cc2c(cc1Nc1ncc(Cl)c(N[C@@H]3[C@H](C(N)=O)[C@H]4C=C[C@@H]3C4)n1)CCN(CC(F)(F)F)CC2 (relative stereo) [Example 250, (2-exo, 3-exo)-3-{5-Chloro-2-[8-methoxy-3-(2,2,2-trifluoro-ethyl)-2,3,4,5-tetrahydro-1H-benzo[d]azepin-7-ylamino]-pyrimidin-4-ylamino}-bicyclo[2.2.1]hept-5-ene-2-carboxylic acid amide hydrochloride]
IC50 [1, 9]: < 100 nM
IC50 [2, 10]: > 10000 nM

SMILES: CNS(=O)(=O)c1ccccc1Nc1nc(Nc2ccc3c(c2)C2CC3CN(CCOC)C2)ncc1Cl (stereo not drawn) [Example 162, 2-{5-Chloro-2-[10-(2-methoxy-ethyl)-10-aza-tricyclo[6.3.1.0*2,7*]dodeca-2,4,6-trien-4-ylamino]-pyrimidin-4-ylamino}-N-methyl-benzenesulfonamide]
IC50 [1, 9]: < 100 nM
IC50 [2, 10]: 1000 to 10000 nM

SMILES: COc1ccc(Nc2nc(Nc3cc4c(cc3OC)CCN(CC(=O)N(C)C)CC4)ncc2Cl)c(-n2cccn2)c1 [Example 616, 2-{7-[5-Chloro-4-(4-methoxy-2-pyrazol-1-yl-phenylamino)-pyrimidin-2-ylamino]-8-methoxy-1,2,4,5-tetrahydro-benzo[d]azepin-3-yl}-N,N-dimethyl-acetamide]
IC50 [1, 3]: < 100 nM
IC50 [2, 4]: > 10000 nM

SMILES: CCN1C(=O)CCCc2c1ccc(Nc1ncc(Cl)c(N[C@H]3CCC[C@H]3C(=O)NC)n1)c2OC (relative stereo) [Example 373, cis-2-[5-Chloro-2-(1-ethyl-6-methoxy-2-oxo-2,3,4,5-tetrahydro-1H-benzo[b]azepin-7-ylamino)-pyrimidin-4-ylamino]-cyclopentanecarboxylic acid methylamide]
IC50 [1, 9]: < 100 nM
IC50 [2, 10]: > 10000 nM

SMILES: COc1cc2c(cc1Nc1ncc(Cl)c(Nc3ccc(N4CCOCC4)cc3-n3cccn3)n1)CCN(CC(=O)N(C)C)CC2 [Example 626, 2-{7-[5-Chloro-4-(4-morpholin-4-yl-2-pyrazol-1-yl-phenylamino)-pyrimidin-2-ylamino]-8-methoxy-1,2,4,5-tetrahydro-benzo[d]azepin-3-yl}-N,N-dimethyl-acetamide]
IC50 [1, 3]: < 100 nM
IC50 [2, 4]: > 10000 nM

SMILES: CNC(=O)c1ccccc1Nc1nc(Nc2ccc3c(c2)C2CNCC3O2)ncc1Cl (stereo not drawn) [Example 65, 2-[5-Chloro-2-(12-oxa-10-aza-tricyclo[6.3.1.0*2,7*]dodeca-2(7),3,5-trien-4-ylamino)-pyrimidin-4-ylamino]-N-methyl-benzamide]
IC50 [1, 9]: 100 to 1000 nM
IC50 [2, 10]: 100 to 1000 nM

SMILES: CCN1CCc2ccc(Nc3ncc(Cl)c(N[C@@H]4CCCC[C@H]4O)n3)cc2CC1 (relative stereo) [Example 319, trans-2-[5-Chloro-2-(3-ethyl-2,3,4,5-tetrahydro-1H-benzo[d]azepin-7-ylamino)-pyrimidin-4-ylamino]-cyclohexanol]
IC50 [1, 9]: 100 to 1000 nM
IC50 [2, 10]: > 10000 nM

SMILES: CS(=O)(=O)N[C@@H]1CCCC[C@H]1Nc1nc(Nc2ccc3c(c2)C2CCC(C3)N2)ncc1Cl (stereo partly drawn) [Example 82, N-{(1R,2R)-2-[2-(12-Aza-tricyclo[7.2.1.0*2,7*]dodeca-2(7),3,5-trien-4-ylamino)-5-chloro-pyrimidin-4-ylamino]-cyclohexyl}-methanesulfonamide]
IC50 [1, 9]: 1000 to 10000 nM
IC50 [2, 10]: 100 to 1000 nM

SMILES: COc1c(Nc2ncc(Cl)c(N[C@H]3[C@@H](C(N)=O)[C@@H]4C=C[C@H]3C4)n2)ccc2c1CC[C@H](N1CCOCC1)CC2 [Example 881, (1S,2S,3R,4R)-3-[5-Chloro-2-((R)-1-methoxy-7-morpholin-4-yl-6,7,8,9-tetrahydro-5H-benzocyclohepten-2-ylamino)-pyrimidin-4-ylamino]-bicyclo[2.2.1]hept-5-ene-2-carboxylic acid amide]
IC50 [1, 3]: < 100 nM
IC50 ([2]; cMet Activity (c-Met Kinase Inhibition, IC50), 1 μM ATP (Km level)): > 10000 nM
